Experiments:
[1] = molecular target: T1, Recombinant STAT3 protein (STAT3(G127-I722)) (Homo sapiens, UniProt P40763); experiment: STAT3 Fluorescence Polarization (FP) Assay; format: binding; conditions: STAT3(G127-I722) 25 nM, probe 5-FAM-GpYLPQTV-NH2 2 nM, 45-minute incubation
T1 construct: STAT3(G127-I722)
Method in brief: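 STAT3(G127-I722) at 25 nM and 5-FAM-GpYLPQTV-NH2 probe at 2 nM in HEPES pH 7.4 buffer with NaCl, EDTA, Tween 20, DTT; 1% DMSO. FP read after 45 min at room temperature; IC50 by nonlinear regression of mP vs log concentration, binned A ≤100 nM to D >10 μM.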

[2] = molecular target: T2, Recombinant STAT6 protein (STAT6(W123-T658)) (Homo sapiens, UniProt P42226); experiment: STAT6 Fluorescence Polarization (FP) Assay; format: binding; conditions: STAT6(W123-T658) 250 nM, probe 5-FAM-ApYKPFQDLI-NH2 2 nM, 45-minute incubation
T2 construct: STAT6(W123-T658)
T2 sequence (P42226 123-658): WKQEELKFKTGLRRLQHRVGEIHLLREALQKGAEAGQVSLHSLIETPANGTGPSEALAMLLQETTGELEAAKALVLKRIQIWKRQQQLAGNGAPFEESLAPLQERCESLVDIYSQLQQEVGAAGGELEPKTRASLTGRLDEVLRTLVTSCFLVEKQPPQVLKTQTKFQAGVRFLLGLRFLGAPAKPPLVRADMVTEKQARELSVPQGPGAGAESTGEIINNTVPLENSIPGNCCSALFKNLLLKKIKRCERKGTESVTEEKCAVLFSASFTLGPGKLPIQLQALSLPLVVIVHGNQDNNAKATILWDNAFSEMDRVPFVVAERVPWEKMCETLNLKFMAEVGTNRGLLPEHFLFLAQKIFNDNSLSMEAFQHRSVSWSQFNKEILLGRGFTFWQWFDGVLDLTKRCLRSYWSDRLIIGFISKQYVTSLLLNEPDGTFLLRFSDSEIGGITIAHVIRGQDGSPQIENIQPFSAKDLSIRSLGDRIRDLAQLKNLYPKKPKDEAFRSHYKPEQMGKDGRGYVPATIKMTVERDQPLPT
Method in brief: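 STAT6 (W123-T658) at 250 nM mixed with 2 nM 5-FAM-ApYKPFQDLI-NH2 probe in HEPES pH 7.4 buffer with DTT and Tween 20, 1% DMSO final. Polarization read after 45 min at room temperature; IC50 by nonlinear regression of mP versus log concentration, reported in bins A–D.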

T1 sequence (P40763 127-722, species assumed): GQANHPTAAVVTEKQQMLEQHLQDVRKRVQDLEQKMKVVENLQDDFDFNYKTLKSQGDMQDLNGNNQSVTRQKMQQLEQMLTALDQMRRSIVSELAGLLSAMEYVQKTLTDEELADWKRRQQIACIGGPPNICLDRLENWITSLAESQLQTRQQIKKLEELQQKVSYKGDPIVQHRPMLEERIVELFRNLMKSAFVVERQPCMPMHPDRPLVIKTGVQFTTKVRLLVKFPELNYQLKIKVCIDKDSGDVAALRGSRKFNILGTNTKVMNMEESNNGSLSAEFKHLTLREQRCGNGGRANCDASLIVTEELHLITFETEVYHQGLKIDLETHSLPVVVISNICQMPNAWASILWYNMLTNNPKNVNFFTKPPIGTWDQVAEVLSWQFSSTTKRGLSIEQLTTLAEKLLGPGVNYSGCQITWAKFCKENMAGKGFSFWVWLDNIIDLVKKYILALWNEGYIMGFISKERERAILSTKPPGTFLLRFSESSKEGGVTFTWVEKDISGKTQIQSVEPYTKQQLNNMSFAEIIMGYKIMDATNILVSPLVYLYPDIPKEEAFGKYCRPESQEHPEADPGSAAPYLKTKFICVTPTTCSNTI

Row | SMILES | IC50 [1] [nM] | IC50 [2] [µM]
1 | C[C@]12CC[C@H](NC(=O)c3cc4cc(C(F)(F)P(=O)(O)O)ccc4s3)C(=O)N3[C@H](CC[C@H]3C(=O)N3CC(c4cccnc4)C3)[C@H]1C2 [Example 234, (difluoro(2-(((3S,6S,8aR,9aS,9bR)-8a-methyl-5-oxo-3-(3-(pyridin-3-yl)azetidine-1-carbonyl)decahydro-1H-cyclopropa[c]pyrrolo[1,2-a]azocin-6-yl)carbamoyl)benzo[b]thiophen-5-yl)methyl)phosphonic acid] | < 100 | 3 to 30
2 | C[C@]12CC[C@H](NC(=O)c3cc4cc(CP(=O)(O)O)ccc4s3)C(=O)N3[C@H](CC[C@H]3C(=O)N3CC(c4cccnc4)C3)[C@H]1C2 [Example 235, ((2-(((3S,6S,8aR,9aS,9bR)-8a-methyl-5-oxo-3-(3-(pyridin-3-yl)azetidine-1-carbonyl)decahydro-1H-cyclopropa[c]pyrrolo[1,2-a]azocin-6-yl)carbamoyl)benzo[b]thiophen-5-yl)methyl)phosphonic acid] | 100 to 1000 | > 30
3 | COC1(c2nccn2C)CN(C(=O)[C@@H]2CC[C@@H]3C[C@@]4(C)C[C@H]4C[C@H](NC(=O)c4cc5cc(C(F)(F)P(=O)(O)O)ccc5s4)C(=O)N32)C1 [Example 237, (difluoro(2-(((3S,6S,7aS,8aR,9aR)-3-(3-methoxy-3-(1-methyl-1H-imidazol-2-yl)azetidine-1-carbonyl)-8a-methyl-5-oxodecahydro-1H-cyclopropa[d]pyrrolo[1,2-a]azocin-6-yl)carbamoyl)benzo[b]thiophen-5-yl)methyl)phosphonic acid] | 100 to 1000 | 3 to 30
4 | C[C@]12C[C@H]3CC[C@@H](C(=O)N4CC(c5cccnc5)C4)N3C(=O)[C@@H](NC(=O)c3cc4cc(CP(=O)(O)O)ccc4s3)C[C@H]1C2 [Example 238, ((2-(((3S,6S,7aR,8aS,9aR)-8a-methyl-5-oxo-3-(3-(pyridin-3-yl)azetidine-1-carbonyl)decahydro-1H-cyclopropa[d]pyrrolo[1,2-a]azocin-6-yl)carbamoyl)benzo[b]thiophen-5-yl)methyl)phosphonic acid] | 100 to 1000 | > 30
5 | Cc1ccncc1C1CN(C(=O)[C@@H]2CC[C@@H]3C[C@@H]4C[C@@H]4C[C@H](NC(=O)c4cc5cc(CP(=O)(O)O)ccc5s4)C(=O)N32)C1 [Example 243, ((2-(((3S,6S,7aR,8aS,9aR)-3-(3-(4-methylpyridin-3-yl)azetidine-1-carbonyl)-5-oxodecahydro-1H-cyclopropa[d]pyrrolo[1,2-a]azocin-6-yl)carbamoyl)benzo[b]thiophen-5-yl)methyl)phosphonic acid] | < 100 | > 30
6 | CC(=O)N1C[C@H](NC(=O)[C@@H]2CC[C@@H]3C[C@@H]4C[C@@H]4C[C@H](NC(=O)c4cc5cc(CP(=O)(O)O)ccc5s4)C(=O)N32)[C@@H](F)C1 [Example 244, ((2-(((3S,6S,7aR,8aS,9aR)-3-(((3S,4S)-1-acetyl-4-fluoropyrrolidin-3-yl)carbamoyl)-5-oxodecahydro-1H-cyclopropa[d]pyrrolo[1,2-a]azocin-6-yl)carbamoyl)benzo[b]thiophen-5-yl)methyl)phosphonic acid] | 1000 to 10000 | 3 to 30
7 | O=C(N[C@H]1C[C@@H]2C[C@@H]2C[C@H]2CC[C@@H](C(=O)N[C@H]3CN(c4ccccn4)C[C@@H]3F)N2C1=O)c1cc2cc(CP(=O)(O)O)ccc2s1 [Example 246, ((2-(((3S,6S,7aS,8aR,9aR)-3-(((3S,4S)-4-fluoro-1-(pyridin-2-yl)pyrrolidin-3-yl)carbamoyl)-5-oxodecahydro-1H-cyclopropa[d]pyrrolo[1,2-a]azocin-6-yl)carbamoyl)benzo[b]thiophen-5-yl)methyl)phosphonic acid] | 100 to 1000 | 3 to 30
8 | O=C(N[C@H]1C[C@@H]2C[C@@H]2C[C@H]2CC[C@@H](C(=O)N3CC(c4cnccc4F)C3)N2C1=O)c1cc2cc(CP(=O)(O)O)ccc2s1 [Example 247, ((2-(((3S,6S,7aS,8aR,9aR)-3-(3-(4-fluoropyridin-3-yl)azetidine-1-carbonyl)-5-oxodecahydro-1H-cyclopropa[d]pyrrolo[1,2-a]azocin-6-yl)carbamoyl)benzo[b]thiophen-5-yl)methyl)phosphonic acid] | < 100 | > 30
9 | O=C(N[C@H]1C[C@H]2C[C@H]2C[C@H]2CC[C@@H](C(=O)N3CC(c4cnccc4F)C3)N2C1=O)c1cc2cc(C(F)P(=O)(O)O)ccc2s1 (stereo partly drawn) [Example 248, (fluoro(2-(((3S,6S,7aR,8aS,9aR)-3-(3-(4-fluoropyridin-3-yl)azetidine-1-carbonyl)-5-oxodecahydro-1H-cyclopropa[d]pyrrolo[1,2-a]azocin-6-yl)carbamoyl)benzo[b]thiophen-5-yl)methyl)phosphonic acid] | < 100 | 0.3 to 3
10 | O=C(N[C@H]1C[C@H]2C[C@H]2C[C@H]2CC[C@@H](C(=O)N3CC(c4cnccc4F)C3)N2C1=O)c1cc2cc(CP(=O)(O)O)ccc2s1 [Example 250, ((2-(((3S,6S,7aR,8aS,9aR)-3-(3-(4-fluoropyridin-3-yl)azetidine-1-carbonyl)-5-oxodecahydro-1H-cyclopropa[d]pyrrolo[1,2-a]azocin-6-yl)carbamoyl)benzo[b]thiophen-5-yl)methyl)phosphonic acid] | < 100 | 3 to 30
11 | CCc1ccncc1C1CN(C(=O)[C@@H]2CC[C@@H]3C[C@H]4C[C@H]4C[C@H](NC(=O)c4cc5cc(CP(=O)(O)O)ccc5s4)C(=O)N32)C1 [Example 252, ((2-(((3S,6S,7aS,8aR,9aR)-3-(3-(4-ethylpyridin-3-yl)azetidine-1-carbonyl)-5-oxodecahydro-1H-cyclopropa[d]pyrrolo[1,2-a]azocin-6-yl)carbamoyl)benzo[b]thiophen-5-yl)methyl)phosphonic acid] | < 100 | > 30
12 | O=C(N[C@H]1C[C@H]2C[C@H]2C[C@H]2CC[C@@H](C(=O)N[C@H]3CN(c4cccnc4)C[C@@H]3F)N2C1=O)c1cc2cc(CP(=O)(O)O)ccc2s1 [Example 253, ((2-(((3S,6S,7aR,8aS,9aR)-3-(((3S,4S)-4-fluoro-1-(pyridin-3-yl)pyrrolidin-3-yl)carbamoyl)-5-oxodecahydro-1H-cyclopropa[d]pyrrolo[1,2-a]azocin-6-yl)carbamoyl)benzo[b]thiophen-5-yl)methyl)phosphonic acid] | < 100 | 3 to 30
13 | CC(=O)N1C[C@H](NC(=O)[C@@H]2CC[C@@H]3C[C@@H]4C[C@@H]4C[C@H](NC(=O)c4cc5cc(C(F)P(=O)(O)O)ccc5s4)C(=O)N32)[C@@H](F)C1 (stereo partly drawn) [Example 254, ((2-(((3S,6S,7aR,8aS,9aR)-3-(((3S,4S)-1-acetyl-4-fluoropyrrolidin-3-yl)carbamoyl)-5-oxodecahydro-1H-cyclopropa[d]pyrrolo[1,2-a]azocin-6-yl)carbamoyl)benzo[b]thiophen-5-yl)fluoromethyl)phosphonic acid] | 100 to 1000 | 0.3 to 3
14 | O=C(N[C@H]1C[C@@H]2C[C@@H]2C[C@H]2CC[C@@H](C(=O)N[C@H]3CN(c4cccnc4)C[C@@H]3F)N2C1=O)c1cc2cc(CP(=O)(O)O)ccc2s1 [Example 256, ((2-(((3S,6S,7aS,8aR,9aR)-3-(((3S,4S)-4-fluoro-1-(pyridin-3-yl)pyrrolidin-3-yl)carbamoyl)-5-oxodecahydro-1H-cyclopropa[d]pyrrolo[1,2-a]azocin-6-yl)carbamoyl)benzo[b]thiophen-5-yl)methyl)phosphonic acid] | 100 to 1000 | 3 to 30

From patent publication US20250215030A1, “STAT MODULATORS AND USES THEREOF” (Recludix Pharma, Inc., priority 2022, published 2025)
